The target of assay [1] is T1, chitin synthase 2 of Saccharomyces cerevisiae ECY38-38A(pAS6) (Saccharomyces cerevisiae, UniProt P14180).
T1 construct: made in house; host or cells: Saccharomyces cerevisiae ECY38-38A (chs1-23 chs2::LEU2 cal1/csd2) carrying plasmid pAS6, grown in galactose medium; 130,000 x g membrane pellet
As to the kind of experiment: In vitro enzyme assay for chitin synthase 2 of Saccharomyces cerevisiae (enzyme 2). Type of assay: biochemical. To be noted: relative to polyoxin D (50% inhibitory activity = value 5). The procedure, abridged:
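Values are scores: 5 means 50% inhibition at the same concentration as polyoxin D, lower scores 2- to 16-fold higher concentration, higher scores ½ to ⅛. Radiolabel from 1.1 mM UDP-[14C]-GlcNAc was incorporated into TCA-insoluble chitin over 90 min at 30 °C (pH 7.5 Tris, 2 mM Co2+). The enzyme was a trypsin-activated membrane fraction from CHS2-only S. cerevisiae ECY38-38A(pAS6).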

For assay [2], the system named is Candida krusei ATCC 6258. Nature of the assay: In vitro antifungal activity (MIC), NCCLS method. Type of assay: cell-based. The following applies: 48 hours. The source says: (§1) Candida albicans ATCC 10231, Candida lusitaniae ATCC 42720, Candida krusei ATCC 6258, Candida tropicalis ATCC 13803, Candida glabrata ATCC 48435, Candida parapsilosis ATCC 34136, Cryptococcus neoformans ATCC 36556, Aspergillus fumigatus ATCC 16424, Aspergillus flavus ATCC 64025, Aspergillus terreus ATCC 46941 and Mucor ramosissimus ATCC 90286 strains for the MIC (minimum inhibitory concentration) measurement were obtained from ATCC (American Type Culture Collection) in the U.S. The Candida albicans A207(clinical isolate) strain was used by isolating it from the patients.
(§2) The determination of MIC was performed according to the NCCLS (National Committee for Clinical Laboratory Standard) method. Each test sample solution was diluted two-fold and inoculated with a fungal suspension to reach a final inoculum size of 5×10^2 to 2.5×10^3 cell/mL. The Cryptococcus neoformans strain was cultured in the RPMI 1640 medium for 72 hours. Other strains were cultured for 48 hours.

In assay [3] the test system is Aspergillus flavus ATCC 64025. Nature of the assay: In vitro antifungal activity (MIC), NCCLS method. Type of assay: cell-based. To be noted: 48 hours.
Description: as §1, §2

Assay [4] relates to Candida glabrata ATCC 48435. Nature of the assay: In vitro antifungal activity (MIC), NCCLS method. The following applies: Candida glabrata ATCC 48435; 48 hours. Type of assay: cell-based.
Description: as §1, §2

The subject of assay [5] is Candida parapsilosis ATCC 34136. As to the kind of experiment: In vitro antifungal activity (MIC), NCCLS method. Type of assay: cell-based. To be noted: Candida parapsilosis ATCC 34136; 48 hours.
Description: as §1, §2

The subject of assay [6] is Candida tropicalis ATCC 13803. As to the kind of experiment: In vitro antifungal activity (MIC), NCCLS method. The following applies: 48 hours. Type of assay: cell-based.
Description: as §1, §2

Assay [7] concerns Aspergillus fumigatus ATCC 16424. Nature of the assay: In vitro antifungal activity (MIC), NCCLS method. The following applies: 48 hours. Type of assay: cell-based.
Description: as §1, §2

The test system of assay [8] is Cryptococcus neoformans ATCC 36556. Nature of the assay: In vitro antifungal activity (MIC), NCCLS method. Type of assay: cell-based. The following applies: RPMI 1640 medium, 72 hours.
Description: as §1, §2

Assay [9] deals with Candida lusitaniae ATCC 42720. Nature of the assay: In vitro antifungal activity (MIC), NCCLS method. It counts as cell-based. The following applies: 48 hours.
Description: as §1, §2

For assay [10], the system named is Mucor ramosissimus ATCC 90286. As to the kind of experiment: In vitro antifungal activity (MIC), NCCLS method. It counts as cell-based. To be noted: 48 hours.
Description: as §1, §2

The test system of assay [11] is Candida albicans ATCC 10231. Nature of the assay: In vitro antifungal activity (MIC), NCCLS method. Type of assay: cell-based. To be noted: 48 hours.
Description: as §1, §2

Assay [12] deals with Candida albicans A207 (clinical isolate). Nature of the assay: In vitro antifungal activity (MIC), NCCLS method. It counts as cell-based. To be noted: 48 hours.
Description: as §1, §2

Assay [13] relates to Aspergillus terreus ATCC 46941. Nature of the assay: In vitro antifungal activity (MIC), NCCLS method. To be noted: 48 hours. Type of assay: cell-based.
Description: as §1, §2

The target of assay [14] is T2, chitin synthase 1 of Candida albicans chs2 Δ chs 3 Δ (Candida albicans, UniProt P23316).
T2 construct: Crude enzyme was prepared using the Candida albicans chs2 Δ chs 3 Δ mutant; endogenous in cells; host or cells: Candida albicans chs2Δ/chs2Δ chs3Δ/chs3Δ mutant; 130,000 x g membrane pellet
T2 sequence (P23316 whole entry, stated change not applied): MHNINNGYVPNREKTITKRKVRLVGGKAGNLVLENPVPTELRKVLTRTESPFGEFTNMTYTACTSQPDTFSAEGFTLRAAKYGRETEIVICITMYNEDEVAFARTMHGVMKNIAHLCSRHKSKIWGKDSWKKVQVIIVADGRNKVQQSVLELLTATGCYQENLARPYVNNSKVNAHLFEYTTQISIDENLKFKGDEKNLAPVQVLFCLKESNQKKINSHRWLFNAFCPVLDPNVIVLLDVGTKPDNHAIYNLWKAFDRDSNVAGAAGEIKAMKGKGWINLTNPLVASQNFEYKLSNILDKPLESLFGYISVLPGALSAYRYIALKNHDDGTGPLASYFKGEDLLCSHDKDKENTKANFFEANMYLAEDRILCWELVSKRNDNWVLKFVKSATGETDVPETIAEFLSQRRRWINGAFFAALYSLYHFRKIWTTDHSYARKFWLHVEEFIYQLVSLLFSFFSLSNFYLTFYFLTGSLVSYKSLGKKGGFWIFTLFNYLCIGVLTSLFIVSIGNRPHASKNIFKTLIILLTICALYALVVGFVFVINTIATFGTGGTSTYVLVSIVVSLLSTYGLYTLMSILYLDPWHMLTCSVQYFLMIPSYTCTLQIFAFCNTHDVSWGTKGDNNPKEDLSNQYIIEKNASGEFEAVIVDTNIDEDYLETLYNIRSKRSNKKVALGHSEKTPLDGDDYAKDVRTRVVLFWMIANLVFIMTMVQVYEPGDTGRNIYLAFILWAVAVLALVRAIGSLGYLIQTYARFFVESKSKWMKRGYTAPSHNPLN
Nature of the assay: In vitro enzyme assay for chitin synthase 1 of Candida albicans (enzyme 1). It counts as biochemical. To be noted: relative to polyoxin D (50% inhibitory activity = value 5). In short, it runs like this: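 Trypsin-activated crude membrane chitin synthase 1 from C. albicans chs2Δ chs3Δ was incubated 90 min at 30 °C with 1.1 mM UDP-[14C]GlcNAc and 2 mM cobalt acetate in Tris-HCl pH 7.5. Filtered TCA precipitate was counted by scintillation; values are scores 1–8 against polyoxin D (5 = same concentration).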

T1 sequence (P14180 whole entry): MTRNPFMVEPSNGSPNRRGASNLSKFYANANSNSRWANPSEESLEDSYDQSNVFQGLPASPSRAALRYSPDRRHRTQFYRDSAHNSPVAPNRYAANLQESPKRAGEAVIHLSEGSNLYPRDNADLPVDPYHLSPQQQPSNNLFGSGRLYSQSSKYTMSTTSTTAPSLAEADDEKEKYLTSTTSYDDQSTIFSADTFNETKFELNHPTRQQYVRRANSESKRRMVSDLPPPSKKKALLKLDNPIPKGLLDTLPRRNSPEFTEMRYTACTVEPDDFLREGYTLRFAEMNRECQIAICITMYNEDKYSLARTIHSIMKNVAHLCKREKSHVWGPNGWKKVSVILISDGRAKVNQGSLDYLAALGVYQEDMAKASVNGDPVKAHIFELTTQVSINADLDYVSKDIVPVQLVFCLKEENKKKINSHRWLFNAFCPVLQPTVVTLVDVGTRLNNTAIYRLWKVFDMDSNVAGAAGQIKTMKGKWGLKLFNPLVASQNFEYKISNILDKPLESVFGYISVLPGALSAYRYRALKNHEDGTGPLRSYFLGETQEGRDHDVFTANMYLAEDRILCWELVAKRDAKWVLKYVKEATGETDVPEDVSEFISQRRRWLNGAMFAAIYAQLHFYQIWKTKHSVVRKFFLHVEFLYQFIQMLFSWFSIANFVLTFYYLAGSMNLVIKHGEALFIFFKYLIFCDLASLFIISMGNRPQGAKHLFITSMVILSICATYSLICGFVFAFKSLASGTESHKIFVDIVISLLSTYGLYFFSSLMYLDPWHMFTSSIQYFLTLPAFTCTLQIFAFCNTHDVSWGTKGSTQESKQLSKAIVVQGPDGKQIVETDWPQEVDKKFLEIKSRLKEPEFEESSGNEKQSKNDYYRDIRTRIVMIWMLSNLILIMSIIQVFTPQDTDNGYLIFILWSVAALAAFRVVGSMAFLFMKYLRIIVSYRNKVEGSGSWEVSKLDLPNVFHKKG

Regarding “13-(4-Isopropylbenzyl)-9-O-(3-hydroxypropyl)berberrubine chloride [Compound No. 53]”, the “Relative activity Enzyme 2” value in assay [1] was 6 (compounds having the inhibitory activity at ½, ¼ and ⅛ lower concentrations than that of polyoxin D were given the values of 6, 7 and 8, respectively). Moreover, the “MIC (minimum inhibitory concentration)” value in assay [2] is 1 µg/mL; in assay [3] it was 8 µg/mL; in assay [4], 2 µg/mL; in assay [5], 2 µg/mL; in assay [6], 0.5 µg/mL; in assay [7] it was 2 µg/mL. In addition, the “MIC (minimum inhibitory concentration)” value in [8] worked out at 1 µg/mL; in assay [9], 2 µg/mL; in assay [10] it was 4 µg/mL; in assay [11] it was 0.5 µg/mL; in assay [12], 0.5 µg/mL; in assay [13], 8 µg/mL. For the same substance, the “Relative activity Enzyme 1” value in assay [14] was 4 (Compounds having the inhibitory activity at 2-fold, 4-fold, 8-fold and 16-fold higher concentrations than that of polyoxin D were given the values of 4, 3, 2 and 1, respectively).
“13-(4-Isopropylbenzyl)-9-O-(3-hydroxypropyl)berberrubine iodide [Compound No. 21]”: in assay [1], the “Relative activity Enzyme 2” value is 6 (compounds having the inhibitory activity at ½, ¼ and ⅛ lower concentrations than that of polyoxin D were given the values of 6, 7 and 8, respectively). Moreover, the “MIC (minimum inhibitory concentration)” value in [2] came to 1 µg/mL; in assay [3], 8 µg/mL; in assay [4] it was 2 µg/mL; in assay [5] it was 2 µg/mL; in assay [6], 0.5 µg/mL; in [7], 2 µg/mL. Moreover, the “MIC (minimum inhibitory concentration)” value in assay [8] came to 1 µg/mL; in assay [9], 2 µg/mL; in [10], 4 µg/mL; in assay [11], 0.5 µg/mL; in [12], 0.5 µg/mL; in [13] it was 8 µg/mL. In assay [14], the “Relative activity Enzyme 1” value was 3 (Compounds having the inhibitory activity at 2-fold, 4-fold, 8-fold and 16-fold higher concentrations than that of polyoxin D were given the values of 4, 3, 2 and 1, respectively).
As to “13-(4-Isopropylbenzyl)-9-O-(4-isopropylbenzyl)berberrubine bromide [Compound No. 26]”, in assay [1], the “Relative activity Enzyme 2” value is 5 (A compound having the same inhibitory activity as that of polyoxin D at the same concentration was given the value 5). Besides, the “MIC (minimum inhibitory concentration)” value in assay [2] came to 2 µg/mL; in [3], 8 µg/mL; in assay [4], 2 µg/mL; in assay [5] it was 8 µg/mL; in [6], 1 µg/mL; in [7] it was 4 µg/mL. Besides, the “MIC (minimum inhibitory concentration)” value in assay [8] was 2 µg/mL; in [9], 4 µg/mL; in assay [10], 8 µg/mL; in assay [11], 1 µg/mL; in assay [12], 1 µg/mL; in assay [13], 8 µg/mL. Besides, the “Relative activity Enzyme 1” value in assay [14] is 2 (Compounds having the inhibitory activity at 2-fold, 4-fold, 8-fold and 16-fold higher concentrations than that of polyoxin D were given the values of 4, 3, 2 and 1, respectively).
Consider “13-(4-Isopropylbenzyl)-9-O-(4-isopropylbenzyl)berberrubine chloride [Compound No. 58]”, for which the “Relative activity Enzyme 2” value in [1] is 5 (A compound having the same inhibitory activity as that of polyoxin D at the same concentration was given the value 5). In addition, the “MIC (minimum inhibitory concentration)” value turned out to be 2 µg/mL in assay [2]; 8 µg/mL in assay [3]; 2 µg/mL in [4]; 8 µg/mL in [5]; 1 µg/mL in assay [6]; 4 µg/mL in [7]. For the same substance, the “MIC (minimum inhibitory concentration)” value in [8] worked out at 2 µg/mL; in assay [9] it was 4 µg/mL; in [10], 8 µg/mL; in assay [11] it was 1 µg/mL; in [12], 1 µg/mL; in assay [13], 8 µg/mL. Also, in assay [14], the “Relative activity Enzyme 1” value was 2 (Compounds having the inhibitory activity at 2-fold, 4-fold, 8-fold and 16-fold higher concentrations than that of polyoxin D were given the values of 4, 3, 2 and 1, respectively).
In the case of “13-(4-Isopropylbenzyl)-9-O-(4-tert-butylbenzyl)berberrubine bromide [Compound No. 25]”, in [1], the “Relative activity Enzyme 2” value is 5 (A compound having the same inhibitory activity as that of polyoxin D at the same concentration was given the value 5). The “MIC (minimum inhibitory concentration)” value in assay [2] turned out to be 4 µg/mL; in [3], 8 µg/mL; in assay [4] it was 4 µg/mL; in assay [5], 8 µg/mL; in assay [6] it was 1 µg/mL; in assay [7] it was 4 µg/mL. The “MIC (minimum inhibitory concentration)” value in assay [8] stood at 2 µg/mL; in assay [9] it was 4 µg/mL; in assay [10] it was 8 µg/mL; in assay [11] it was 1 µg/mL; in assay [12], 1 µg/mL; in assay [13] it was 8 µg/mL. Besides, the “Relative activity Enzyme 1” value in assay [14] is 2 (Compounds having the inhibitory activity at 2-fold, 4-fold, 8-fold and 16-fold higher concentrations than that of polyoxin D were given the values of 4, 3, 2 and 1, respectively).
With “13-(4-Isopropylbenzyl)-9-O-(4-tert-butylbenzyl)berberrubine chloride [Compound No. 57]”, the “Relative activity Enzyme 2” value in [1] is 5 (A compound having the same inhibitory activity as that of polyoxin D at the same concentration was given the value 5). The “MIC (minimum inhibitory concentration)” value amounted to 4 µg/mL in assay [2]; 8 µg/mL in [3]; 4 µg/mL in assay [4]; 8 µg/mL in assay [5]; 1 µg/mL in assay [6]; 4 µg/mL in [7]. For the same substance, the “MIC (minimum inhibitory concentration)” value in assay [8] is 2 µg/mL; in [9], 4 µg/mL; in assay [10] it was 8 µg/mL; in assay [11] it was 1 µg/mL; in assay [12], 1 µg/mL; in assay [13], 8 µg/mL. Moreover, the “Relative activity Enzyme 1” value in [14] is 2 (Compounds having the inhibitory activity at 2-fold, 4-fold, 8-fold and 16-fold higher concentrations than that of polyoxin D were given the values of 4, 3, 2 and 1, respectively).
